{
  "source": "patent US6495590B1",
  "about": "“Use of amtolmetin guacyl for the production of anti-inflammatory drugs for intestinal inflammations” (Medosan Ricerca S.r.l., priority 1998, dated 2002)",
  "key": {"[1]": {"test_system": "rabbit PRP (plasma rich in platelets)", "experiment": "Platelet aggregation on rabbit PRP, agonist collagen", "format": "cell-based", "details": "Oryctolagus cuniculus", "procedure": "(§1) Male New Zealand rabbits, 2000-3000 g [Stefano Morini, S. Polo D'Enza, RE Italy], quarantined for 5 days prior beginning of the trial (anti-piatelet effect). Male Wistar rats, 250±20 g [IFFA CREDO, Italy] randomized, divided into groups of 5 animals each and fasted for 16 h prior to treatment (thromboanemia determination).\n(§2) Blood was intracardially collected from rabbits, using as anticoagulant sodium citrate at a final concentration of 0.38% and centrifuged for 15′ at 150 g in order to obtain a plasma rich in platelets (PRP). PRP was used at a concentration of 3.5×10^8 platelet/ml. MED 15 and reference products were incubated with the PRP for 3′ at 37 C° prior to addition of the aggregating agent. Platelet aggregation induced by arachidonic acid, sodium salt [TAC (threshold aggregation concentration): 140 μm] and collagen (TAC: 28 μg/ml) was measured using an aggregometer (Chronolog model 500) according to the Born's method ([…]. Nature 1962; 194: 927-929) and was expressed as inhibition percentage with respect to the agonist mean response."}, "human ulcerative colitis": {"test_system": "human ulcerative colitis", "experiment": "Double-blind, controlled, randomized clinical trial in ulcerative colitis", "format": "in vivo", "details": "MED 15 1200 mg/day plus 5-aminosalicylic acid, 60 days, vs 5-ASA plus placebo", "procedure": "A double-blind, controlled, randomized study was carried out in patients affected by two simultaneous pathologies: ulcerative colitis and osteoarticolar disease (osteoarthritis, rheumatoid arthritis, extra-articular rheumatism).\n20 patients were divided into 2 homogeneous groups of 10 patients each (Group A and Group B):\nGroup A was treated with 5-aminosalicylic acid 1200 mg/day and placebo\nGroup B was treated with 5-aminosalicylic acid […] and MED 15 1200 mg/day\nThe following clinical evaluations were performed at the beginning of the study (T0), T15, T30, and T60 (end of therapy):\n1) endoscopic examination of intestinal mucosa\n2) annotation of symptomatology referred by the patients.\nThe severity of these parameters was expressed by a score as follows: […]"}, "[2]": {"test_system": "acetic acid-induced colitis", "experiment": "Acetic acid-induced colitis", "format": "in vivo, rat", "details": "MED 15 100 mg/Kg per os at T-48 h, -24 h, -2 h; acetic acid controls 949±66", "procedure": "(§3) Male Wistar rats, 180±20g quarantined for at least 5days and fasted for 18 h prior to the beginning of the trial (on a grid to avoid coprophagy) with free access to water.\nColitis was induced in animals by administration of 5% acetic acid (1.5 ml/rat) in the distal colon lumen with an 8 cm cannula at T=0.\nMED 15 (100 mg/Kg per os) was administered at T−48 h, −24 h and −2 h.\n24 h after colitis induction, animals were killed by cervical dislocation and the colon removed and washed in physiological solution at pH 7.4, was examined for damage evaluation.\n(§4) Considered parameters are:\nmalondialdehyde (MDA), oxidative process indicator.\n(§5) data were evaluated by Student's t-test"}, "[3]": {"test_system": "indomethacin-induced small intestine inflammation", "experiment": "Indomethacin-induced small intestine inflammation", "format": "in vivo, rat", "procedure": "as §3\nThe animals were treated with indomethacin (7.5 mg/Kg by subcutaneous administration in NaHCO3 5%) at T=0 and T=+1 day.\nMED 15 (100 mg/Kg per os in 1% CMC) was administered according to two different treatments:\nScheme no. 1: T=0, +1 and 2 days\nScheme no. 2: T=0, +1, +2, +5, +6, +7 days\n24 h after the last administration the animals were killed by cervical dislocation; the small intestine (from the pylorus to the ileocecal valve), removed and opened lengthwise, was washed in physiological solution at pH 7.4 for damage evaluation.\nConsidered parameters are: […]\nmyeloperoxidase (MPO), neutrophil indicator; malondialdehyde (MDA), oxidative process indicator. data were evaluated by Student's t-test"}, "[4]": {"test_system": "rabbit PRP (plasma rich in platelets)", "experiment": "Platelet aggregation on rabbit PRP, agonist arachidonic acid sodium salt", "format": "cell-based", "details": "Oryctolagus cuniculus", "procedure": "as §1, §2"}, "TNB-induced colitis": {"test_system": "TNB-induced colitis", "experiment": "TNB-induced colitis", "format": "in vivo, rat", "details": "MED 15 100 mg/Kg per os T=0, +1, +2, +3 days", "procedure": "as §3\nColitis was induced in animals by administration of 15 mg TNB (trinitrobenzosulphonic acid) in 0.25 ml of 30% ethanol in the colon lumen and with an 8 cm cannula at T=0.\nMED 15 (100 mg/Kg per os in 1% CMC) was administered to:\n5 h after the last administration the animals were killed by cervical dislocation, the colon (8 cm distal portion) removed for damage evaluation.\nas §4\nmyeloperoxidase (MPO), neutrophil indicator;\nas §5"}, "TXB2 plasma levels": {"test_system": "TXB2 plasma levels", "experiment": "TXB2 (thromboxane) determination in rat", "format": "in vivo", "details": "for TXB2 ng/ml ± S.E. / inhibition at 100 mg/kg: 100 mg/kg per os, blood 3 h after treatment; for TXB2 ng/ml ± S.E.: controls 174.1 ± 42.6; for % inhibition of TXB2 plasma levels: kinetics; for inhibition at 100 mg/kg: po, vs controls", "procedure": "as §1\nThe animals received per OS 100 mg/kg (1.5 ml/rat) MED 15 and (acetyl salicylic acid) suspended in 1% CMC, and controls received the vehicle only. […] Tromboxane content was determined in the serum thus obtained using a RIA kit [Amersham TRK780]. The results obtained can be evaluated with reference to the following tables and figures."}},
  "data": [
    {"smiles": "COc1ccccc1OC(=O)CNC(=O)Cc1ccc(C(=O)c2ccc(C)cc2)n1C", "note": "[MED 15, 2-metoxyphenyl-1-methyl-5-p-methylbenzoyl-pirrol-2-acetamido acetate]", "values": [
      {"measurement": "inhibition at 0.05 µM", "setting": "[1]; 0.05 μM", "result": 0, "unit": "%"},
      {"measurement": "inhibition at 0.1 µM", "setting": "[1]; 0.10 μM", "result": 34.3, "unit": "%"},
      {"measurement": "inhibition at 0.39 µM", "setting": "[1]; 0.39 μM", "result": 100, "unit": "%"},
      {"measurement": "effectiveness in ulcerative colitis (mucosal inflammation and symptomatology scores)", "setting": "human ulcerative colitis", "result": "more effective than 5-ASA"},
      {"measurement": "healing time", "setting": "human ulcerative colitis", "result": "dramatically reduced compared to 5-ASA"},
      {"measurement": "malondialdehyde levels", "setting": "[2]", "result": "719 ± 60", "unit": "nmol/g"},
      {"measurement": "reduction in the number of ulcers", "setting": "[3]; scheme no. 1 (acute phase, T=0, +1 and 2 days), MED 15 100 mg/Kg per os, vs indomethacin controls", "result": 44.3, "unit": "%"},
      {"measurement": "score", "setting": "[3]; scheme no. 1, MED 15 100 mg/Kg per os, indomethacin controls 7.62±1.84", "result": "4.63±2.73"},
      {"measurement": "tissutal levels of MPO", "setting": "[3]; scheme no. 1, after MED 15 treatment 100 mg/Kg per os", "result": "diminution"},
      {"measurement": "decrease of score value", "setting": "[3]; scheme no. 2 (prolonged), MED 15 100 mg/Kg per os", "result": 58.4, "unit": "%"},
      {"measurement": "decrease in number of ulcers", "setting": "[3]; scheme no. 2 (prolonged, T=0, +1, +2, +5, +6, +7 days), MED 15 100 mg/Kg per os", "result": 86.1, "unit": "%"},
      {"measurement": "inhibition at 0.5 µM", "setting": "[4]; 0.5 μM", "result": 7.7, "unit": "%"},
      {"measurement": "inhibition at 1.25 µM", "setting": "[4]; 1.25 μM", "result": 100, "unit": "%"},
      {"measurement": "inhibition at 2.5 µM", "setting": "[4]; 2.5 μM", "result": 100, "unit": "%"},
      {"measurement": "inhibition at 5 µM", "setting": "[4]; 5.0 μM", "result": 100, "unit": "%"},
      {"measurement": "colon walls weight, change compared to TNB control", "setting": "TNB-induced colitis", "result": "−28.6", "unit": "%"},
      {"measurement": "myeloperoxidase levels, change compared to TNB control", "setting": "TNB-induced colitis", "result": "−33.1", "unit": "%"},
      {"measurement": "score, change compared to TNB control", "setting": "TNB-induced colitis", "result": "−35.2", "unit": "%"},
      {"measurement": "duration of the effect on TXB2 plasma levels", "setting": "TXB2 plasma levels", "result": 24, "unit": "h"},
      {"measurement": "TXB2 ng/ml ± S.E.", "setting": "TXB2 plasma levels", "result": "14.3 ± 1.3", "unit": "ng/mL"},
      {"measurement": "% inhibition of TXB2 plasma levels", "setting": "TXB2 plasma levels; 0.75 h", "result": 93.2, "unit": "%"},
      {"measurement": "% inhibition of TXB2 plasma levels", "setting": "TXB2 plasma levels; 1.5 h", "result": 90.8, "unit": "%"},
      {"measurement": "% inhibition of TXB2 plasma levels", "setting": "TXB2 plasma levels; 3.0 h", "result": 91.4, "unit": "%"},
      {"measurement": "% inhibition of TXB2 plasma levels", "setting": "TXB2 plasma levels; 24.0 h", "result": 49.2, "unit": "%"},
      {"measurement": "inhibition at 100 mg/kg", "setting": "TXB2 plasma levels", "result": 91.8, "unit": "%"}
    ]},
    {"smiles": "CC(=O)Oc1ccccc1C(=O)O", "note": "[ASA, acetylsalicylic acid, reference compound]", "values": [
      {"measurement": "inhibition at 12.5 µM", "setting": "[1]; 12.5 μM", "result": "18.4 ± 10.5", "unit": "%"},
      {"measurement": "inhibition at 25 µM", "setting": "[1]; 25.0 μM", "result": "33.7 ± 2.1", "unit": "%"},
      {"measurement": "inhibition at 50 µM", "setting": "[1]; 50.0 μM", "result": "70.4 ± 14.9", "unit": "%"},
      {"measurement": "inhibition at 100 µM", "setting": "[1]; 100.0 μM", "result": 100, "unit": "%"},
      {"measurement": "inhibition at 25 µM", "setting": "[4]; 25.0 μM", "result": 0, "unit": "%"},
      {"measurement": "inhibition at 50 µM", "setting": "[4]; 50.0 μM", "result": "83.3 ± 16.7", "unit": "%"},
      {"measurement": "inhibition at 100 µM", "setting": "[4]; 100.0 μM", "result": 100, "unit": "%"},
      {"measurement": "TXB2 ng/ml ± S.E.", "setting": "TXB2 plasma levels", "result": "2.9 ± 1.1", "unit": "ng/mL"},
      {"measurement": "inhibition at 100 mg/kg", "setting": "TXB2 plasma levels", "result": 98.3, "unit": "%"}
    ]}
  ]
}
